Target: T1, CtBP2-p300 interaction (Mus musculus, UniProt B2RWS6+P56546)
T1 construct: In vivo immunoprecipitation with anti-CtBP2-coated protein G beads in MPAEpiC cells; endogenous in cells; host or cells: MPAEpiC (mouse pulmonary alveolar epithelial cells)
Assay: Immunoprecipitation with anti-CtBP2 in MPAEpiC cells co-treated with LPS and PNSC928
Assay type: cell-based
Settings: LPS + PNSC928 0, 11.8, 23.6, and 47.2 µM, 6 h
Protocol: For LPS treatment, different knockdown (KD) cell lines—Control^KD, CtBP2^KD, p300^KD, and p65^KD, all derived from MPAEpiC—were seeded in 12-well plates and cultured at 37 °C until reaching 80% confluence. The cells were then treated with 200 ng/mL of LPS for 6 h, washed three times with PBS, and subjected to the required experiments. For experiments involving inhibitors of CtBP2, p300, and NF-κB, as well as the compound PNSC928, MPAEpiC, RAW264.7, FL83B, TKPTS, and HL-1 cells were seeded in 12-well plates and cultured at 37 °C to reach 80% confluence. Cells were then cotreated with 200 ng/mL LPS along with varying concentrations of the following chemicals: MTOB (0, 5, 10, or 20 mM), NSC95397 (0, 10, 20, or 40 µM), C646 (0, 3, 6, or 12 µM), A-485 (0, 5, 10, or 20 nM), TPCA1 (0, 150, 300, or 600 nM), BOT64 (0, 1, 2, or 4 µM), or PNSC928 (0, 11.8, 23.6, or 47.2 µM). After 6 h of treatment, cells were washed three times with PBS before proceeding with further experiments. […]
To probe this interaction, we established an AlphaScreen system that utilized GST-p300^BRD and His-CtBP2, binding to donor and acceptor beads, respectively (Fig. 4C). […] In vitro assays assessed the effects of PNSC928 on the CtBP2-p300^BRD interaction. […] Furthermore, we assessed the impact of combined LPS and PNSC928 treatment on the expression of key molecules in the NF-κB signaling pathway.

T1 sequence (P56546 whole entry): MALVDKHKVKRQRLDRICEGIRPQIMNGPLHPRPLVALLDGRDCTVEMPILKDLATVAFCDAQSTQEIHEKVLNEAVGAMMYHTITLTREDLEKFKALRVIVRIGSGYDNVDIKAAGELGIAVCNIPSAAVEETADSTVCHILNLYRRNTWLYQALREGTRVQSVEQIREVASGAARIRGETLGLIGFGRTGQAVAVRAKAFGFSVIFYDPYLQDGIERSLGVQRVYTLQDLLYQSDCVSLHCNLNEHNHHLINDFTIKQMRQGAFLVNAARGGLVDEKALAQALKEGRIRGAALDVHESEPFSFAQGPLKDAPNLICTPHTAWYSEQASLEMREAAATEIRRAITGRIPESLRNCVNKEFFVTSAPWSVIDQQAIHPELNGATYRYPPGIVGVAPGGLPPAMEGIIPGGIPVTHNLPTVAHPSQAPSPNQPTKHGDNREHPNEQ
T1 sequence (B2RWS6 whole entry): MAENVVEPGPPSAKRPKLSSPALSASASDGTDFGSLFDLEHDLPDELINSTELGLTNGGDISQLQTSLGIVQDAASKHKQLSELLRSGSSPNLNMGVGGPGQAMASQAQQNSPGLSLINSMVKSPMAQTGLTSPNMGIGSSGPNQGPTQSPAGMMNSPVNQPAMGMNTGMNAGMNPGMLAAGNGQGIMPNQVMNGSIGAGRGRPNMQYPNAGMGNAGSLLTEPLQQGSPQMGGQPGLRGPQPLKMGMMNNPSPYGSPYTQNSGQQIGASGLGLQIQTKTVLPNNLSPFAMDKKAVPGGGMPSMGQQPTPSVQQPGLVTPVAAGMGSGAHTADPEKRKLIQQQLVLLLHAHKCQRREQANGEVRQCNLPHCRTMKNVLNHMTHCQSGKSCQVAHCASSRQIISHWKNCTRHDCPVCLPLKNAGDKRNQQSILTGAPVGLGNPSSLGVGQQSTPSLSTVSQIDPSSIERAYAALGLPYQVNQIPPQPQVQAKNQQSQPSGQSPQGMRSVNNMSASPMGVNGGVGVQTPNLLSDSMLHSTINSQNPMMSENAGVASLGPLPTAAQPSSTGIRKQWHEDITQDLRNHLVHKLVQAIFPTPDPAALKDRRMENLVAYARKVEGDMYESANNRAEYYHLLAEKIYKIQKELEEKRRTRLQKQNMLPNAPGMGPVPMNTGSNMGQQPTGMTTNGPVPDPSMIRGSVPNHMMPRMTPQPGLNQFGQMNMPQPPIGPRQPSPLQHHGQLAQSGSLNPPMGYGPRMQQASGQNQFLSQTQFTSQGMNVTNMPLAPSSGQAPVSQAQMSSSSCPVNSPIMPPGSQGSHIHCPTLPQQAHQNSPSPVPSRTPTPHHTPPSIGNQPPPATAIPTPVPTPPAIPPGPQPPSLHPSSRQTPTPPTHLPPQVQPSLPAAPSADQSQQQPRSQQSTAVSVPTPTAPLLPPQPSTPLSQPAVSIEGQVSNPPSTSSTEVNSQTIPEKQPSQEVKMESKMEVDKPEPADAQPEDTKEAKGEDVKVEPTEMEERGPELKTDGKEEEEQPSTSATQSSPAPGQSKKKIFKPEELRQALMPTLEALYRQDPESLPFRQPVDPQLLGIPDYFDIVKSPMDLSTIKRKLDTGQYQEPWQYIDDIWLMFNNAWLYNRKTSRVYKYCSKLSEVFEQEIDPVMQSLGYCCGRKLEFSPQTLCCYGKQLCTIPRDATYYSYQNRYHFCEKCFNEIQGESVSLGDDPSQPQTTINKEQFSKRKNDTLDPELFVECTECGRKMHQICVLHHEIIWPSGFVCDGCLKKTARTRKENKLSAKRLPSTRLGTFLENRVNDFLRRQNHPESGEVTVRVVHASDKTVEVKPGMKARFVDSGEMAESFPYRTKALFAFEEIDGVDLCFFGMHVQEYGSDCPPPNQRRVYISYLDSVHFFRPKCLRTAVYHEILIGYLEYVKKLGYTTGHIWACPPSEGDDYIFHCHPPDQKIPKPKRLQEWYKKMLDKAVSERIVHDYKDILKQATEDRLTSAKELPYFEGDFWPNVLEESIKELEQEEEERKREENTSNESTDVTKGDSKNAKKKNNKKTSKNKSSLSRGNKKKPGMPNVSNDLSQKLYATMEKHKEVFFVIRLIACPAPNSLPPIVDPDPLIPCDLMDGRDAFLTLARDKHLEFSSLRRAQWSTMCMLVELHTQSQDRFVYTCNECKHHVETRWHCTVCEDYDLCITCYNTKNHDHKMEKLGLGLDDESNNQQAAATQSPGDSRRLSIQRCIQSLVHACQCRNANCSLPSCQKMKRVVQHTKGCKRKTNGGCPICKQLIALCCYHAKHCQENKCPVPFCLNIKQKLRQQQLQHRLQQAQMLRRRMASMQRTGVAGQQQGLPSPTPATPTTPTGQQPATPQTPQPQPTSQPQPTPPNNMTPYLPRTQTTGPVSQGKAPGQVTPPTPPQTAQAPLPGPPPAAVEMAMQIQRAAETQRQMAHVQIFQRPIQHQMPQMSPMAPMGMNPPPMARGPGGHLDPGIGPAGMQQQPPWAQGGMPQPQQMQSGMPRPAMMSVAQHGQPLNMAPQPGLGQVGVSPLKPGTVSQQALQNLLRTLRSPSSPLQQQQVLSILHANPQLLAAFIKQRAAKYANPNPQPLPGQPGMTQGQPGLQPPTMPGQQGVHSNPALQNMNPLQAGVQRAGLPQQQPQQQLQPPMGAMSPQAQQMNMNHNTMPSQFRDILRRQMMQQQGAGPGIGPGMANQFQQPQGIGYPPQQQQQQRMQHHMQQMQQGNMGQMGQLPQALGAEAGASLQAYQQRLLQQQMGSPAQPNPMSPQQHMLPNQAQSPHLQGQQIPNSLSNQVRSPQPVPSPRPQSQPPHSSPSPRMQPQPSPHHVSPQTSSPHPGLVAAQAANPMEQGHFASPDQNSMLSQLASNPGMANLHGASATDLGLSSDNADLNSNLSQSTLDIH

## CC(=CCCC1=CCC(C2COC(=O)C2)OC1O)CCC1=C(C)CCCC1(C)C (stereo not shown) [PNSC928]
  p300^BRD levels pulled down by CtBP2: dose-dependent decrease
